# Assay results published in PubChem BioAssay (NCI).
# “And” between values parts separate entries of the source, which are not always exact repeats. Equal values may be shown once.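 Step 1: Grow cells in 96-well plates. Step 2: Expose to compound for 48 hours at 5 concentrations. Step 3: Interpolate endpoints linearly; if unreached, use highest concentration. At the GI50, growth is halved. TGI is the concentration that stops growth completely.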 The source made the active and inactive calls. No stated cut-off is given here; in the data, active means GI50 below about 0.43 µM; inactive means the rest.
# Legend:
# Assay in all cases: NCI tumour cell line growth inhibition, 48 h
# [1] = test system: A498 renal
# [2] = test system: MDA-MB-231 breast
# [3] = test system: MCF7 breast
# [4] = test system: OVCAR-3 ovarian
# [5] = test system: HOP-92 NSCLC
# [6] = test system: T-47D breast
# [7] = test system: SK-MEL-5 melanoma
# [8] = test system: OVCAR-5 ovarian
# [9] = test system: OVCAR-4 ovarian
# [10] = test system: MOLT-4 leukemia
# [11] = test system: M14 melanoma
# [12] = test system: EKVX NSCLC
# [13] = test system: SNB-75 CNS
# [14] = test system: HCT-116 colon
# [15] = test system: NCI-H226 lung
# [16] = test system: HL-60(TB) leukemia
# [17] = test system: HS 578T breast
# [18] = test system: M19-MEL melanoma
# [19] = test system: XF 498 CNS
# [20] = test system: CAKI-1 renal
# [21] = test system: K-562 leukemia
# [22] = test system: COLO 205 colon
# [23] = test system: SF-268 CNS
# [24] = test system: SN12K1 renal
# [25] = test system: U251 CNS
# [26] = test system: DU-145 prostate
# [27] = test system: IGROV1 ovarian
# [28] = test system: UACC-257 melanoma
# [29] = test system: 786-0 renal
# [30] = test system: SK-MEL-2 melanoma
# [31] = test system: SN12C renal
# [32] = test system: HOP-62 NSCLC
# [33] = test system: TK-10 renal
# [34] = test system: RPMI-8226 leukemia
# [35] = test system: HCC-2998 colon
# [36] = test system: DMS 273 small cell lung
# [37] = test system: OVCAR-8 ovarian
# [38] = test system: HT29 colon
# [39] = test system: RXF 393 renal
# [40] = test system: DMS 114 small cell lung
# [41] = test system: HCT-15 colon
# [42] = test system: DLD-1 colon
# [43] = test system: SNB-19 CNS
# [44] = test system: SR leukemia
# [45] = test system: A549 NSCLC
# [46] = test system: UO-31 renal
# [47] = test system: CCRF-CEM leukemia
# [48] = test system: NCI-H460 lung
# [49] = test system: MDA-N
# [50] = test system: SF-295 CNS
# [51] = test system: SW-620 colon
# [52] = test system: KM12 colon
# [53] = test system: MALME-3M melanoma
# [54] = test system: SK-MEL-28 melanoma
# [55] = test system: BT-549 breast
# [56] = test system: SK-OV-3 ovarian
# [57] = test system: LOX IMVI melanoma
# [58] = test system: MDA-MB-435
# [59] = test system: HOP-18 NSCLC
# [60] = test system: ACHN renal
# [61] = test system: SNB-78 CNS
# [62] = test system: UACC-62 melanoma
# [63] = test system: P388/ADR leukemia
# [64] = test system: KM20L2 colon
# [65] = test system: SF-539 CNS
# [66] = test system: NCI-H23 lung
# [67] = test system: NCI/ADR-RES ovarian
# [68] = test system: PC-3 prostate
# [69] = test system: NCI-H522 lung
# [70] = test system: P388 leukemia
structure (smiles),measurement,setting,value
COC(C(=O)C(O)C(C)O)C1Cc2cc3cc(OC4CC(OC5CC(O)C(O)C(C)O5)C(O)C(C)O4)c(C)c(O)c3c(O)c2C(=O)C1OC1CC(OC2CC(O)C(OC3CC(C)(O)C(O)C(C)O3)C(C)O2)C(O)C(C)O1 (centres undefined),GI50,[1],11.2 ng/mL and 0.0278 ng/mL
same,GI50,[2],27.9 ng/mL and 32 ng/mL
same,TGI,[2],112000 ng/mL and 43500 ng/mL
same,GI50,[3],0.53 ng/mL
same,TGI,[3],730 ng/mL
same,GI50,[4],11.2 ng/mL and 4.13 ng/mL
same,GI50,[5],11.2 ng/mL and 3.21 ng/mL
same,TGI,[5],80 ng/mL and 82 ng/mL
same,GI50,[6],17.5 ng/mL
same,TGI,[6],15800 ng/mL
same,GI50,[7],11.2 ng/mL and 1.86 ng/mL
same,GI50,[8],13 ng/mL and 3.6 ng/mL
same,GI50,[9],24.2 ng/mL and 1.92 ng/mL
same,TGI,[9],269 ng/mL and 143 ng/mL
same,GI50,[10],11.2 ng/mL and 2.69 ng/mL
same,GI50,[11],47 ng/mL and 29.3 ng/mL
same,GI50,[12],18.8 ng/mL and 0.265 ng/mL
same,GI50,[13],11.2 ng/mL and 0.782 ng/mL
same,GI50,[14],11.2 ng/mL and 15 ng/mL
same,GI50,[15],11.2 ng/mL and 0.196 ng/mL
same,GI50,[16],2.27 ng/mL
same,TGI,[16],188 ng/mL
same,GI50,[17],16.4 ng/mL
same,TGI,[17],134 ng/mL
same,GI50,[18],0.0253 ng/mL
same,TGI,[18],0.31 ng/mL
same,outcome,[19],inactive
same,GI50,[20],11.2 ng/mL and 0.362 ng/mL
same,TGI,[20],48.4 ng/mL and 41.4 ng/mL
same,GI50,[21],11.2 ng/mL and 2.32 ng/mL
same,GI50,[22],11.2 ng/mL and 0.702 ng/mL
same,GI50,[23],16.7 ng/mL and 1.13 ng/mL
same,GI50,[24],0.0304 ng/mL
same,TGI,[24],150 ng/mL
same,GI50,[25],11.2 ng/mL and 0.643 ng/mL
same,GI50,[26],27.4 ng/mL and 43.5 ng/mL
same,TGI,[26],112000 ng/mL and 127000 ng/mL
same,GI50,[27],11.2 ng/mL and 2.31 ng/mL
same,GI50,[28],12.2 ng/mL and 1.15 ng/mL
same,TGI,[28],59.8 ng/mL and 27 ng/mL
same,GI50,[29],11.2 ng/mL and 15.2 ng/mL
same,TGI,[29],112000 ng/mL and 64700 ng/mL
same,GI50,[30],11.2 ng/mL and 1.5 ng/mL
same,GI50,[31],11.2 ng/mL and 1.1 ng/mL
same,GI50,[32],11.2 ng/mL and 0.0327 ng/mL
same,GI50,[33],25.2 ng/mL and 295 ng/mL
same,GI50,[34],11.2 ng/mL and 1.64 ng/mL
same,TGI,[34],507 ng/mL and 191 ng/mL
same,GI50,[35],11.7 ng/mL and 0.297 ng/mL
same,GI50,[36],0.0407 ng/mL
same,TGI,[36],2.4 ng/mL
same,GI50,[37],11.2 ng/mL and 0.822 ng/mL
same,GI50,[38],2.84 ng/mL
same,TGI,[38],2030 ng/mL
same,GI50,[39],11.2 ng/mL and 0.246 ng/mL
same,GI50,[40],0.0556 ng/mL
same,TGI,[40],0.479 ng/mL
same,GI50,[41],244 ng/mL and 2.99 ng/mL
same,TGI,[41],2650 ng/mL and 1500 ng/mL
same,GI50,[42],0.0828 ng/mL
same,TGI,[42],150 ng/mL
same,GI50,[43],40.2 ng/mL
same,TGI,[43],> 150000 ng/mL
same,GI50,[44],11.2 ng/mL and 1910 ng/mL
same,TGI,[44],112000 ng/mL and > 150000 ng/mL
same,GI50,[45],12.6 ng/mL and 1.27 ng/mL
same,GI50,[46],72.5 ng/mL and 3.56 ng/mL
same,GI50,[47],11.2 ng/mL and 0.853 ng/mL
same,GI50,[48],11.2 ng/mL and 0.613 ng/mL
same,GI50,[49],13.9 ng/mL and 25.8 ng/mL
same,TGI,[49],128 ng/mL and 328 ng/mL
same,GI50,[50],18.5 ng/mL and 0.389 ng/mL
same,GI50,[51],12.1 ng/mL and 2.36 ng/mL
same,GI50,[52],11.2 ng/mL and 0.667 ng/mL
same,TGI,[52],42.8 ng/mL and 72.3 ng/mL
same,GI50,[53],11.2 ng/mL and 0.642 ng/mL
same,GI50,[54],11.2 ng/mL and 0.611 ng/mL
same,GI50,[55],15 ng/mL
same,TGI,[55],73.9 ng/mL
same,GI50,[56],16.3 ng/mL and 4.5 ng/mL
same,GI50,[57],2.17 ng/mL
same,TGI,[57],15000 ng/mL
same,GI50,[58],12.1 ng/mL and 339 ng/mL
same,outcome,[59],inactive
same,GI50,[60],16.2 ng/mL and 32.6 ng/mL
same,TGI,[60],112000 ng/mL and > 150000 ng/mL
same,GI50,[61],0.0424 ng/mL
same,TGI,[61],21.4 ng/mL
same,GI50,[62],11.2 ng/mL and 0.54 ng/mL
same,GI50,[63],1.32 ng/mL
same,TGI,[63],20.4 ng/mL
same,outcome,[64],inactive
same,GI50,[65],11.2 ng/mL and 0.474 ng/mL
same,GI50,[66],11.2 ng/mL and 0.748 ng/mL
same,GI50,[67],3870 ng/mL and 80.9 ng/mL
same,GI50,[68],19.4 ng/mL and 39.6 ng/mL
same,GI50,[69],11.2 ng/mL and 0.596 ng/mL
same,GI50,[70],0.056 ng/mL
same,TGI,[70],0.798 ng/mL
